One data set concerns PDE4D. Also on record: method as in PMID 31899535. Particulars: in vitro assay at concentrations up to 200 µM; cited from earlier work.
Data set [1] has as its system paw edema in collagen-induced arthritis. Details: method as in PMID 31899535. Particulars: rats with collagen-induced arthritis, PK/PD arthritis progression model; cited from earlier work.
The next data set concerns ConA-induced hepatitis. As to the kind of experiment: Pharmacodynamic study and PK/PD/disease progression modeling in ConA-induced hepatitis. Particulars: for IC50: Mus musculus, serum concentration, PK/PD model, IP 50 or 100 mg/kg, ConA 20 mg/kg IV. The format is in vivo, female BALB/c mice. On the procedure:
ConA was dissolved in sterile saline (2 mg·mL^−1). The studied compounds (GRMS-55, rolipram, and BRL-50481) were dissolved in a mixture of DMSO, PEG 400, and water for injection at a ratio of 25:25:50 (v/v/v). Mice were given an IP injection of the investigated compounds or the corresponding volume of vehicle alone and, thirty minutes later, intravenously (IV) administered with ConA solution. An additional control group received vehicle alone IP instead of the studied compounds followed by IV injection of sterile saline. ConA was given at a dose of 20 mg·kg^−1. Mice were exsanguinated at several time points post-ConA injection. Blood samples were allowed to clot for 0.5 h at room temperature and then centrifuged at 3000× g for 10 min to obtain the serum, which was stored at −20 °C until further analysis.
The influence of PDE inhibitors on the levels of inflammatory mediators and transaminases in ConA-treated mice was investigated in two separate experiments. In the preliminary study, the animals were pretreated IP with GRMS-55 at a dose of 50 mg·kg^−1, the PDE4-selective inhibitor rolipram at a dose of 10 mg·kg^−1, or the PDE7-selective inhibitor BRL-50481 at a dose of 50 mg·kg^−1. Doses of the investigated compounds were chosen based on the results of previous studies. Subsequently, mice were given an IV injection of ConA and sacrificed at 8 h following mitogen dosing. The levels of TNF-α, IL-6, and IFN-γ and the activities of ALT and AST in the mouse serum were measured. This preliminary experiment allowed comparing the activity of the studied PDE inhibitors in this AIH model and helped to select the doses of GRMS-55 for a subsequent pharmacodynamic study. In the final pharmacodynamic experiment, GRMS-55 was administered at two dose levels (50 and 100 mg·kg^−1) followed by ConA administration at a dose of 20 mg·kg^−1. Animals were sacrificed at various time points post-ConA dosing (1, 2, 4, 8 and 24 h). The levels of TNF-α, IL-1β, IL-4, IL-6, IL-10, IL-12, IL-17A, and IFN-γ were measured using a multiplex Luminex assay. In addition, the activities of ALT and AST in the mouse serum were assessed. The concentration–time profiles of the selected biomarkers obtained in this experiment combined with the results of pharmacokinetic analysis allowed the development of a semi-mechanistic PK/PD/disease progression model and the investigation of concentration–effect relationships of GRMS-55.
The serum samples from the preliminary pharmacological study were analyzed using ELISA tests according to the protocols provided by the manufacturers. The TNF-α concentrations were measured using the Mouse TNF-α Quantikine ELISA Kit (R&D Systems, Minneapolis, MN, USA), while the concentrations of IL-6 and IFN-gamma were quantified by ELISA kits manufactured by Cloud-Clone Corp. (Houston, TX, USA). The absorbance of samples was measured on a POLARstar Omega multi-mode microplate reader (BMG LABTECH, Ortenberg, Germany) set at 450 nm wavelength. TNF-α, IL-1β, IL-6, IL-4, IL-10, IL-12, IL-17A, and IFN-γ serum levels in samples from pharmacodynamic experiment were determined by a premixed Magnetic Luminex Assay (R&D Systems, Inc., Minneapolis, MN, USA) according to the manufacturer’s protocol. Serum AST and ALT activities were quantified on a chemistry analyzer BS-800 (Shenzhen Mindray Bio-medical Electronics Co., Ltd., Shenzhen, China).
A PK/PD/disease progression model illustrated in Figure 1 was developed considering the mechanism of action of the investigated compound and the mechanisms of progression of ConA-induced hepatitis, i.e., the subsequent stages leading to the production and release of relevant biomarkers.
Moreover, possible interrelationships and interactions among the measured biomarkers were considered during the model building process. […]

Data set [2] can be described thus: Stability in serum samples and stock solutions (bioanalytical validation). The format is physicochemical, mouse. The method, then: To analyze GRMS-55 concentrations in the mouse serum, we used the previously developed HPLC method with UV detection. A detailed description of this method was published in a supplementary material of our previous publication. Briefly, 10 μL of 4-(8-((furan-2-ylmethyl)amino)-1,3-dimethyl-2,6-dioxo-1,2,3,6-tetrahydro-7H-purin-7-yl)-N′-(2-hydroxybenzylidene)butanehydrazide solution as internal standard (IS) was added to tubes containing 100 μL of the analyzed serum. The samples were mixed with 20 μL of 1 M hydrochloric acid solution, subjected to extraction with 1 mL of dichloromethane, and centrifuged at 10,000× g for 8 min. The organic layers were transferred to new tubes and evaporated with nitrogen at 37 °C. Dry residues were then dissolved in 100 μL of mobile phase and transferred to glass vial inserts for HPLC analysis (LaChrom Elite, Merck-Hitachi, Darmstadt, Germany). […] Within runs and between runs, precision and accuracy met the acceptance criteria, i.e., they were less than 15% expressed as coefficients of variation % (CVs%) or ±15% of the nominal concentrations, respectively, for all quality control levels. Recoveries of the analyzed compound and IS assessed by comparing the peak areas of extracted samples with corresponding extracts of blanks spiked with the analyte post-extraction ranged from 94% to 98%. The lower limit of quantification was 0.05 mg·L^−1. […]

The values that follow come from article PMC8143339, “PK/PD Modeling of the PDE7 Inhibitor—GRMS-55 in a Mouse Model of Autoimmune Hepatitis” (Pharmaceutics, 2021).

The structures appear in SMILES notation. In brackets after ≈: the same amount, converted by molar mass. Entries after “also recorded” stand apart in the source; their conditions may differ. Where two headings read alike, the source gives them in different places.

With `Cn1c(=O)c2c(nc(NCCc3ccccc3)n2CCCC(=O)NN=Cc2ccccc2O)n(C)c1=O` [GRMS-55, 4-(1,3-dimethyl-2,6-dioxo-8-(phenethylamino)-1,2,3,6-tetrahydro-7H-purin-7-yl)-N′-(2-hydroxybenzylidene)butanehydrazide], the PDE4D inhibition result in the data set with PDE4D is on record as “not found to inhibit; also recorded: not active”. Besides, the “IC50, decrease of paw edema” value in data set [1] was 0.26 µg/mL. The “effect on serum IL-4 level” value in the data set with ConA-induced hepatitis (1, 2 and 8 h post-ConA, both dose groups) is “decreased”. In addition, in the data set with ConA-induced hepatitis (50 or 100 mg/kg IP), the “effect on ALT and AST activities” value was “significant and prominent decrease”. Besides, in the data set with ConA-induced hepatitis (4 h post-ConA, 50 and 100 mg/kg IP), the “effect on serum IL-12 level” value is on record as “significantly decreased”. Besides, in the data set on ConA-induced hepatitis (8 h post-ConA, 50 and 100 mg/kg IP), the “effect on serum IL-1β level” value was “significantly decreased”. In addition, in the data set with ConA-induced hepatitis (8 h post-ConA, both dose levels), the “effect on serum IL-17A concentration” value is “decreased”. The IC50 in the data set with ConA-induced hepatitis (read-out: IC50_IFN-γ, concentration resulting in 50% of Imax of IFN-γ) was 12.3 µg/mL (≈ 24.4 µM); with ConA-induced hepatitis (read-out: IC50_IL-6, concentration resulting in 50% of Imax of IL-6), 13.4 µg/mL (≈ 26.6 µM); in the data set with ConA-induced hepatitis (read-out: IC50_TNF-α, concentration resulting in 50% of Imax of TNF-α) it was 7.97 µg/mL (≈ 15.8 µM). Also, the “stability in serum samples, time stable” value in data set [2] (room temperature) is reported as “at least 12 h”; in data set [2] (–20 °C) it was 12 months.
